Columns and labels:
Test in all cases: relative viability (nuclei count vs DMSO), 5 days (fraction); higher = more cells survive
201T = system: 201T
Method in brief: (§1)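 Cells from lung cancer lines were seeded into 1536-well plates and, one day later, dosed by pin tool. Treatments were either a single drug or a fixed dose of an anchor drug with five library-drug doses (not always all listed) in √10 steps. After 5 days, nuclei were stained in a one-step fixation (final 0.05% Triton X-100, 1% formaldehyde, 1 ug/ml Hoechst) and counted on 4× images, and relative viability is the treated-to-vehicle nuclei ratio, as the median of duplicate plates.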

A-427 = system: A-427
Method in brief: as §1

COR-L23 = system: COR-L23
Method in brief: as §1

HARA = system: HARA
Method in brief: as §1

HCC-78 = system: HCC-78
Method in brief: as §1

LCLC-97TM1 = system: LCLC-97TM1
Method in brief: as §1

LK-2 = system: LK-2
Method in brief: as §1

LOU-NH91 = system: LOU-NH91
Method in brief: as §1

LXF-289 = system: LXF-289
Method in brief: as §1

NCI-H1650 = system: NCI-H1650
Method in brief: as §1

NCI-H1651 = system: NCI-H1651
Method in brief: as §1

NCI-H1793 = system: NCI-H1793
Method in brief: as §1

NCI-H2347 = system: NCI-H2347
Method in brief: as §1

NCI-H23 = system: NCI-H23
Method in brief: as §1

NCI-H2405 = system: NCI-H2405
Method in brief: as §1

NCI-H520 = system: NCI-H520
Method in brief: as §1

NCI-H647 = system: NCI-H647
Method in brief: as §1

NCI-H838 = system: NCI-H838
Method in brief: as §1

PC-3 [JPC-3] = system: PC-3 [JPC-3]
Method in brief: as §1

RERF-LC-KJ = system: RERF-LC-KJ
Method in brief: as §1

UMC-11 = system: UMC-11
Method in brief: as §1

## CN1CCN(CCOc2cc(OC3CCOCC3)c3c(Nc4c(Cl)ccc5c4OCO5)ncnc3c2)CC1 [Saracatinib] + CS(=O)(=O)CCNCc1ccc(-c2ccc3ncnc(Nc4ccc(OCc5cccc(F)c5)c(Cl)c4)c3c2)o1 [Lapatinib] (partner 2 µM)
201T; first compound 0.02 µM
  relative viability: 1
201T; first compound 0.2 µM
  relative viability: 0.856
201T; first compound 0.6325 µM
  relative viability: 0.998
201T; first compound 2 µM
  relative viability: 0.859
A-427; first compound 0.02 µM
  relative viability: 0.921
A-427; first compound 0.2 µM
  relative viability: 0.877
A-427; first compound 0.6325 µM
  relative viability: 1.07
A-427; first compound 2 µM
  relative viability: 1.04
COR-L23; first compound 0.02 µM
  relative viability: 0.947
COR-L23; first compound 0.2 µM
  relative viability: 0.571
COR-L23; first compound 0.6325 µM
  relative viability: 1.1
COR-L23; first compound 2 µM
  relative viability: 0.897
HARA; first compound 0.02 µM
  relative viability: 0.808
HARA; first compound 0.6325 µM
  relative viability: 1.1
HARA; first compound 2 µM
  relative viability: 0.442
HCC-78; first compound 0.02 µM
  relative viability: 0.822
HCC-78; first compound 0.2 µM
  relative viability: 0.481
HCC-78; first compound 0.6325 µM
  relative viability: 0.686
HCC-78; first compound 2 µM
  relative viability: 0.778
LCLC-97TM1; first compound 0.02 µM
  relative viability: 1.34
LCLC-97TM1; first compound 0.2 µM
  relative viability: 0.771
LCLC-97TM1; first compound 0.6325 µM
  relative viability: 0.861
LCLC-97TM1; first compound 2 µM
  relative viability: 0.401
LK-2; first compound 0.02 µM
  relative viability: 0.95
LK-2; first compound 0.2 µM
  relative viability: 0.715
LK-2; first compound 0.6325 µM
  relative viability: 0.725
LK-2; first compound 2 µM
  relative viability: 0.504
LOU-NH91; first compound 0.02 µM
  relative viability: 0.824
LOU-NH91; first compound 0.2 µM
  relative viability: 0.713
LOU-NH91; first compound 0.6325 µM
  relative viability: 0.747
LOU-NH91; first compound 2 µM
  relative viability: 0.652
LXF-289; first compound 0.02 µM
  relative viability: 0.95
LXF-289; first compound 0.2 µM
  relative viability: 0.895
LXF-289; first compound 0.6325 µM
  relative viability: 0.955
LXF-289; first compound 2 µM
  relative viability: 0.901
NCI-H1650; first compound 0.02 µM
  relative viability: 0.779
NCI-H1650; first compound 0.2 µM
  relative viability: 0.803
NCI-H1650; first compound 0.6325 µM
  relative viability: 0.573
NCI-H1650; first compound 2 µM
  relative viability: 0.47
NCI-H1651; first compound 0.02 µM
  relative viability: 0.92
NCI-H1651; first compound 0.2 µM
  relative viability: 0.678
NCI-H1651; first compound 0.6325 µM
  relative viability: 0.873
NCI-H1651; first compound 2 µM
  relative viability: 0.695
NCI-H1793; first compound 0.02 µM
  relative viability: 0.894
NCI-H1793; first compound 0.2 µM
  relative viability: 0.587
NCI-H1793; first compound 0.6325 µM
  relative viability: 0.974
NCI-H1793; first compound 2 µM
  relative viability: 0.76
NCI-H2347; first compound 0.02 µM
  relative viability: 0.988
NCI-H2347; first compound 0.2 µM
  relative viability: 0.817
NCI-H2347; first compound 0.6325 µM
  relative viability: 1.12
NCI-H2347; first compound 2 µM
  relative viability: 0.903
NCI-H23; first compound 0.02 µM
  relative viability: 1.13
NCI-H23; first compound 0.6325 µM
  relative viability: 1.28
NCI-H23; first compound 2 µM
  relative viability: 0.895
NCI-H2405; first compound 0.02 µM
  relative viability: 1.03
NCI-H2405; first compound 0.2 µM
  relative viability: 0.966
NCI-H2405; first compound 0.6325 µM
  relative viability: 0.984
NCI-H2405; first compound 2 µM
  relative viability: 0.511
NCI-H520; first compound 0.02 µM
  relative viability: 0.853
NCI-H520; first compound 0.2 µM
  relative viability: 0.693
NCI-H520; first compound 0.6325 µM
  relative viability: 0.708
NCI-H520; first compound 2 µM
  relative viability: 0.574
NCI-H647; first compound 0.02 µM
  relative viability: 0.76
NCI-H647; first compound 0.2 µM
  relative viability: 0.803
NCI-H647; first compound 0.6325 µM
  relative viability: 0.894
NCI-H647; first compound 2 µM
  relative viability: 0.48
NCI-H838; first compound 0.02 µM
  relative viability: 0.979
NCI-H838; first compound 0.2 µM
  relative viability: 0.893
NCI-H838; first compound 0.6325 µM
  relative viability: 0.842
NCI-H838; first compound 2 µM
  relative viability: 0.655
PC-3 [JPC-3]; first compound 0.02 µM
  relative viability: 0.439
PC-3 [JPC-3]; first compound 0.2 µM
  relative viability: 0.393
PC-3 [JPC-3]; first compound 0.6325 µM
  relative viability: 0.43
PC-3 [JPC-3]; first compound 2 µM
  relative viability: 0.402
RERF-LC-KJ; first compound 0.02 µM
  relative viability: 0.893
RERF-LC-KJ; first compound 0.2 µM
  relative viability: 0.82
RERF-LC-KJ; first compound 0.6325 µM
  relative viability: 0.881
RERF-LC-KJ; first compound 2 µM
  relative viability: 1.02
UMC-11; first compound 0.02 µM
  relative viability: 0.931
UMC-11; first compound 0.2 µM
  relative viability: 0.763
UMC-11; first compound 0.6325 µM
  relative viability: 0.896
UMC-11; first compound 2 µM
  relative viability: 0.78
